Assay results: article PMC8317212 (Journal of medicinal chemistry, 2016)
Where a name gives a salt, the structure may show the parent alone. Read-outs that look alike come from different tables or passages of the source.

Assays:
Format in all cases: cell-based
human 5-HT2C-INI = biological target: T1, human 5-HT2C-INI (Homo sapiens, UniProt P28335); assay: FLIPR calcium flux assay, 5-HT2C; details: for EC50: read-out: EC50, nM 5-HT2C, FLIPR, HEK-293 cells stably expressing human receptor
T1 sequence (P28335 33-458): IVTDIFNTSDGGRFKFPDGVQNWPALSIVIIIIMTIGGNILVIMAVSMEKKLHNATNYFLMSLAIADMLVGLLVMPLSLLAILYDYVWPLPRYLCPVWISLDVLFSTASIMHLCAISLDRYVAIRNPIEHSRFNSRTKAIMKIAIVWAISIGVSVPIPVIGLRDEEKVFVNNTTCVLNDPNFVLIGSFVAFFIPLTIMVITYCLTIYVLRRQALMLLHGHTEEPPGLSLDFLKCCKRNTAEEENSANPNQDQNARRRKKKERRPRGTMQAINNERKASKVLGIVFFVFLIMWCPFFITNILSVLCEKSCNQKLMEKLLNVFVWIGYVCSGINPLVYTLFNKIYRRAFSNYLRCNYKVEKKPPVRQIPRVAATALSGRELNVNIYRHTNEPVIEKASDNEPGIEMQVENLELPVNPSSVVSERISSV

human 5-HT2A = human 5-HT2A (Homo sapiens, UniProt P28223); assay: FLIPR calcium flux assay, 5-HT2A
human 5-HT2A, sequence (P28223 whole entry): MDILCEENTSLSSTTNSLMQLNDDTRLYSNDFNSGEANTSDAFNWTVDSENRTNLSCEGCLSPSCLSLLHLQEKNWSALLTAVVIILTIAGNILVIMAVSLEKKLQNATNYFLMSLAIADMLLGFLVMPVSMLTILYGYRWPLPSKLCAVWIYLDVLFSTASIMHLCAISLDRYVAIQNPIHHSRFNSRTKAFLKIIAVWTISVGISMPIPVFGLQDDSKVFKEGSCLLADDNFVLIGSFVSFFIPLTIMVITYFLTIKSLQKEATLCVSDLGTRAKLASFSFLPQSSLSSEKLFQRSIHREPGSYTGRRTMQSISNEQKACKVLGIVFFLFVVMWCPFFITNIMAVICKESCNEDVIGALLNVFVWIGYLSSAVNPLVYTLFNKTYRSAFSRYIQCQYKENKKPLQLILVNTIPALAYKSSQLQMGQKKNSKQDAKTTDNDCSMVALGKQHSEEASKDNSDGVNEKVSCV

human 5-HT2B = human 5-HT2B (Homo sapiens, UniProt P41595); assay: FLIPR calcium flux assay, 5-HT2B; details: for Emax 5-HT2B: HEK-293 cells stably expressing human receptor
human 5-HT2B, sequence (P41595 whole entry): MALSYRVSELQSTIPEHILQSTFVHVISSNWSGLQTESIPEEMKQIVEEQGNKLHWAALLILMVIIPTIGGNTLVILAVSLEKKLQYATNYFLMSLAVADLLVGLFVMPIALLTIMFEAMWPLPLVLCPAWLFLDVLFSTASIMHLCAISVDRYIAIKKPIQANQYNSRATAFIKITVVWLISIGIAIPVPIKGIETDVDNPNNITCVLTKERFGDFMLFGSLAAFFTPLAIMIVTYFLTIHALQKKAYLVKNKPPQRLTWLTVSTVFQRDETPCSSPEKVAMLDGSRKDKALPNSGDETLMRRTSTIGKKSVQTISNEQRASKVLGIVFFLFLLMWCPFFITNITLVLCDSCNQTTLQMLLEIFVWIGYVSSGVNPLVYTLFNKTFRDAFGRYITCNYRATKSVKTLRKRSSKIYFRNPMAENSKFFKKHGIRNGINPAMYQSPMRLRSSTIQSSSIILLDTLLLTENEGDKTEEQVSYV

[1] = EC50, nM 5-HT2B, FLIPR, HEK-293 cells, NA = no activity (Emax < 15%) at 10 μM

Compound | EC50 (human 5-HT2C-INI) [nM] | EC50, nM 5-HT2A (human 5-HT2A) | further results
NCC1CC1c1c(OCCF)ccc(F)c1F (single isomer, unassigned; (+)) [(+)-21b, (+)-[2-[2,3-Difluoro-6-(2-fluoroethoxy)phenyl]cyclopropyl]methanamine Hydrochloride] | 25 | – | –
C=CCOc1ccc(F)c(Cl)c1C1CC1CN.Cl (single isomer, unassigned; (+)) [(+)-22g, (+)-[2-[6-(Allyloxy)-2-chloro-3-fluorophenyl]cyclopropyl]methanamine Hydrochloride] | – | NA (no activity (Emax < 15%) at 10 μM) | –
C=CCOc1cc(Cl)c(Cl)cc1C1CC1CN.Cl (single isomer, unassigned; (-)) [(–)-22e, (–)-[2-[2-(Allyloxy)-4,5-dichlorophenyl]cyclopropyl]methanamine Hydrochloride] | – | NA (no activity (Emax < 15%) at 10 μM) | EC50, nM 5-HT2B (human 5-HT2B): NA (no activity (Emax < 15%) at 10 μM)
NCC1CC1c1c(OCCF)ccc(F)c1Cl (single isomer, unassigned; (+)) [(+)-21g, (+)-[2-[2-Chloro-3-fluoro-6-(2-fluoroethoxy)phenyl]cyclopropyl]methanamine Hydrochloride] | 49 | – | –
Cl.NCC1CC1c1c(OCCF)ccc(F)c1F (single isomer, unassigned; (-)) [(–)-21b, (–)-[2-[2,3-Difluoro-6-(2-fluoroethoxy)phenyl]cyclopropyl]methanamine Hydrochloride] | – | NA (no activity (Emax < 15%) at 10 μM) | –
NCC1CC1c1cc(Cl)c(Cl)cc1OCCF (single isomer, unassigned; (+)) [(+)-21e, (+)-[2-[4,5-Dichloro-2-(2-fluoroethoxy)phenyl]cyclopropyl]methanamine Hydrochloride] | 18 | – | EC50 (human 5-HT2B; [1]): > 10000 nM
Cl.NCC1CC1c1c(OCCF)ccc(Cl)c1F (single isomer, unassigned; (-)) [(–)-21d, (–)-[2-[3-Chloro-2-fluoro-6-(2-fluoroethoxy)phenyl]cyclopropyl]methanamine Hydrochloride] | – | NA (no activity (Emax < 15%) at 10 μM) | EC50, nM 5-HT2B (human 5-HT2B): NA (no activity (Emax < 15%) at 10 μM)
Cl.NCC1CC1c1cc(Cl)c(Cl)cc1OCCF (single isomer, unassigned; (-)) [(–)-21e, (–)-[2-[4,5-Dichloro-2-(2-fluoroethoxy)phenyl]cyclopropyl]methanamine Hydrochloride] | – | NA (no activity (Emax < 15%) at 10 μM) | EC50, nM 5-HT2B (human 5-HT2B): NA (no activity (Emax < 15%) at 10 μM)
C=CCOc1ccc(F)c(F)c1C1CC1CN.Cl (single isomer, unassigned; (-)) [(–)-22b, (–)-[2-[6-(Allyloxy)-2,3-difluorophenyl]cyclopropyl]methanamine hydrochloride] | – | NA (no activity (Emax < 15%) at 10 μM) | –
C=CCOc1ccc(F)c(Cl)c1C1CC1CN.Cl (single isomer, unassigned; (-)) [(–)-22g, (–)-[2-[6-(Allyloxy)-2-chloro-3-fluorophenyl]cyclopropyl]methanamine Hydrochloride] | – | NA (no activity (Emax < 15%) at 10 μM) | –
Cl.NCC1CC1c1c(OCCF)ccc(Cl)c1F (single isomer, unassigned; (+)) [(+)-21d, (+)-[2-[3-Chloro-2-fluoro-6-(2-fluoroethoxy)phenyl]cyclopropyl]methanamine Hydrochloride] | 71 | – | EC50, nM 5-HT2B (human 5-HT2B): NA (no activity (Emax < 15%) at 10 μM)
Cl.NCC1CC1c1c(OCCF)ccc(Cl)c1Cl (single isomer, unassigned; (+)) [(+)-21f, (+)-[2-[2,3-Dichloro-6-(2-fluoroethoxy)phenyl]cyclopropyl]methanamine Hydrochloride] | – | – | Emax 5-HT2B (human 5-HT2B; FLIPR): 99%
C=CCOc1ccc(F)c(F)c1C1CC1CN.Cl (single isomer, unassigned; (+)) [(+)-22b, (+)-[2-[6-(Allyloxy)-2,3-difluorophenyl]cyclopropyl]methanamine hydrochloride] | 36 | NA (no activity (Emax < 15%) at 10 μM) | EC50 (human 5-HT2B; read-out: EC50, nM 5-HT2B): 3340 nM
NCC1CC1c1cc(F)c(F)cc1OCCF (single isomer, unassigned; (+)) [(+)-21a, (+)-[2-[4,5-Difluoro-2-(2-fluoroethoxy)phenyl]cyclopropyl]methanamine Hydrochloride] | 7.3 | – | –
C=CCOc1ccc(Cl)c(F)c1C1CC1CN.Cl (single isomer, unassigned; (-)) [(–)-22d, (–)-[2-[6-(Allyloxy)-3-chloro-2-fluorophenyl]cyclopropyl]methanamine Hydrochloride] | – | – | EC50, nM 5-HT2B (human 5-HT2B): NA (no activity (Emax < 15%) at 10 μM)
C=CCOc1cc(Cl)c(Cl)cc1C1CC1CN (single isomer, unassigned; (+)) [(+)-22e, (+)-[2-[2-(Allyloxy)-4,5-dichlorophenyl]cyclopropyl]methanamine Hydrochloride] | 61 | – | –
NCC1CC1c1cc(Cl)c(F)cc1OCCF (single isomer, unassigned; (+)) [(+)-21c, (+)-[2-[5-Chloro-4-fluoro-2-(2-fluoroethoxy)phenyl]cyclopropyl]methanamine Hydrochloride] | 24 | – | EC50 (human 5-HT2B; read-out: EC50, nM 5-HT2B): 506 nM
Cl.NCC1CC1c1c(OCCF)ccc(Cl)c1Cl (single isomer, unassigned; (-)) [(–)-21f, (–)-[2-[2,3-Dichloro-6-(2-fluoroethoxy)phenyl]cyclopropyl]methanamine Hydrochloride] | – | NA (no activity (Emax < 15%) at 10 μM) | EC50 (human 5-HT2B; [1]): > 10000 nM; Emax 5-HT2B (human 5-HT2B; FLIPR): 62%
C=CCOc1ccc(Cl)c(F)c1C1CC1CN.Cl (single isomer, unassigned; (+)) [(+)-22d, (+)-[2-[6-(Allyloxy)-3-chloro-2-fluorophenyl]cyclopropyl]methanamine Hydrochloride] | 116 | NA (no activity (Emax < 15%) at 10 μM) | –
C=CCOc1ccc(Cl)c(Cl)c1C1CC1CN.Cl (single isomer, unassigned; (+)) [(+)-22f, (+)-[2-[6-(Allyloxy)-2,3-dichlorophenyl]cyclopropyl]methanamine Hydrochloride] | – | NA (no activity (Emax < 15%) at 10 μM) | EC50, nM 5-HT2B (human 5-HT2B): NA (no activity (Emax < 15%) at 10 μM)
C=CCOc1cc(F)c(Cl)cc1C1CC1CN.Cl (single isomer, unassigned; (-)) [(–)-22c, (–)-[2-[2-(Allyloxy)-5-chloro-4-fluorophenyl]cyclopropyl]methanamine Hydrochloride] | – | NA (no activity (Emax < 15%) at 10 μM) | –
COc1ccc(Cl)c(Cl)c1C1CC1CN.Cl (single isomer, unassigned; (+)) [(+)-20f, (+)-[2-(2,3-Dichloro-6-methoxyphenyl)cyclopropyl]methanamine Hydrochloride] | – | – | Emax 5-HT2A (human 5-HT2A; FLIPR, HEK-293 cells stably expressing human receptor): 76%; Emax 5-HT2B (human 5-HT2B; FLIPR): 46%; fold weaker at 5-HT2C than its enantiomer (human 5-HT2C-INI; compared to the (–)-enantiomer): 20 fold
Cl.NCC1CC1c1cc(Cl)c(F)cc1OCCF (single isomer, unassigned; (-)) [(–)-21c, (–)-[2-[5-Chloro-4-fluoro-2-(2-fluoroethoxy)phenyl]cyclopropyl]methanamine Hydrochloride] | – | NA (no activity (Emax < 15%) at 10 μM) | –
Cl.NCC1CC1c1cc(F)c(F)cc1OCCF (single isomer, unassigned; (-)) [(–)-21a, (–)-[2-[4,5-Difluoro-2-(2-fluoroethoxy)phenyl]cyclopropyl]methanamine Hydrochloride] | – | NA (no activity (Emax < 15%) at 10 μM) | EC50, nM 5-HT2B (human 5-HT2B): NA (no activity (Emax < 15%) at 10 μM)
C=CCOc1cc(F)c(Cl)cc1C1CC1CN.Cl (single isomer, unassigned; (+)) [(+)-22c, (+)-[2-[2-(Allyloxy)-5-chloro-4-fluorophenyl]cyclopropyl]methanamine Hydrochloride] | 42 | – | Emax 5-HT2B (human 5-HT2B; FLIPR): 44%
Cl.NCC1CC1c1c(OCCF)ccc(F)c1Cl (single isomer, unassigned; (-)) [(–)-21g, (–)-[2-[2-Chloro-3-fluoro-6-(2-fluoroethoxy)phenyl]cyclopropyl]methanamine Hydrochloride] | – | NA (no activity (Emax < 15%) at 10 μM) | Emax 5-HT2B (human 5-HT2B; FLIPR): 29%
COc1ccc(Cl)c(Cl)c1C1CC1CN.Cl (single isomer, unassigned; (-)) [(–)-20f, (–)-[2-(2,3-Dichloro-6-methoxyphenyl)cyclopropyl]methanamine Hydrochloride] | – | – | selectivity over 5-HT2B (human 5-HT2B; 5-HT2C vs 5-HT2B): 50 fold
COc1ccc(F)c(Cl)c1C1CC1CN.Cl (single isomer, unassigned; (+)) [(+)-20g, (+)-[2-(2-Chloro-3-fluoro-6-methoxyphenyl)cyclopropyl]methanamine Hydrochloride] | – | – | Emax 5-HT2B (human 5-HT2B; FLIPR): 60%
